“Also recorded” adds a separate entry of the source.
What was measured:
[1] = test system: large cell lung cancer line LXFL 529L; experiment: Monolayer proliferation inhibition, modified propidium iodide assay; type: cell-based; conditions: for In vitro activity (Test/Control %): 4 days exposure, median of 5 experiments; for tumour effects (words): circiliol alone at 3 μg/ml; for in vitro activity of the agent alone: single agent, stated for both cell lines
[2] = test system: lung adenocarcinoma cell line LXFA 526L; experiment: as above; type: cell-based; conditions: for In vitro activity (Test/Control %): 4 days exposure, median of 5 experiments; for tumour effects (words): circiliol alone at 3 μg/ml; for in vitro activity of the agent alone: single agent, stated for both cell lines
[3] = LXFA 529L, 0 μg/ml circiliol, median of 2-5 experiments
[4] = LXFA 529L, +3 μg/ml circiliol, median of 2-5 experiments

**Q.** With `COc1cc2oc(-c3ccc(O)c(O)c3)cc(=O)c2c(O)c1OC` [Circiliol, 6,7-dimethoxy-5,3′4′-trihydroxyflavone] as the compound, how does the “In vitro activity (Test/Control %)” value ([1]; LXFA 529L, circiliol 3 μg/ml) read?
**A.** 102%

**Q.** And the “In vitro activity (Test/Control %)” value ([1]; LXFA 529L, circiliol 30 μg/ml)?
**A.** 49%

**Q.** And the “In vitro activity (Test/Control %)” value ([1]; LXFA 529L, circiliol 300 μg/ml)?
**A.** 39%

**Q.** What about the “tumour effects (words)” value [1] of the same compound?
**A.** inactive alone

**Q.** What about the “tumour effects (words)” value ([1]; listed as circiliol) of the same compound?
**A.** no tumour effects

**Q.** And the “inhibition of tumour growth in vitro” value ([1]; circiliol alone at 30 μg/ml)?
**A.** 50%

**Q.** What about the “antitumour activity in vitro” value ([1]; circiliol alone at <3 μg/ml) of the same compound?
**A.** no antitumour activity

**Q.** What about the “in vitro activity of the agent alone” value [1] of the same compound?
**A.** only moderately active; also recorded: low activity

**Q.** And the “In vitro activity (Test/Control %)” value ([2]; LXFA 526L, circiliol 3 μg/ml)?
**A.** 93%

**Q.** And the “In vitro activity (Test/Control %)” value ([2]; LXFA 526L, circiliol 30 μg/ml)?
**A.** 53%

**Q.** And the “In vitro activity (Test/Control %)” value ([2]; LXFA 526L, circiliol 300 μg/ml)?
**A.** 55%

**Q.** And the “tumour effects (words)” value [2]?
**A.** inactive alone

**Q.** And the “tumour effects (words)” value ([2]; listed as circiliol)?
**A.** no tumour effects

**Q.** And the “inhibition of tumour growth in vitro” value ([2]; circiliol alone at 30 μg/ml)?
**A.** 50%

**Q.** And the “antitumour activity in vitro” value ([2]; circiliol alone at <3 μg/ml)?
**A.** no antitumour activity

**Q.** And the “in vitro activity of the agent alone” value [2]?
**A.** only moderately active; also recorded: low activity

**Q.** Which “IC50 of gemcitabine alone” value [1, 3] does the source give for `Nc1ccn([C@@H]2O[C@H](CO)[C@@H](O)C2(F)F)c(=O)n1` [gemcitabine, 2′, 2′-diflouro-2′-deoxycytidine, reference compound] here?
**A.** 0.355 µg/mL

**Q.** What about the “IC70 of gemcitabine alone” value [1, 3] of the same compound?
**A.** 0.64 µg/mL

**Q.** What about the “IC50 of gemcitabine in combination with circiliol” value [1, 4] of the same compound?
**A.** 0.039 µg/mL

**Q.** What about the “IC70 of gemcitabine in combination with circiliol” value (“IC70 of gemcitabine in combination” below) [1, 4] of the same compound?
**A.** 0.076 µg/mL

**Q.** What about the “fold increase of antitumour activity of gemcitabine (IC70 shift)” value ([1]; LXFA 529L, with 30 μg/ml circiliol) of the same compound?
**A.** 19 fold

**Q.** What about the IC50 ([1]; LXFL 529L, LXFA 529L, 0 μg/ml circiliol, median of 2-5 experiments, read-out: IC50 of gemcitabine alone) of the same compound?
**A.** 0.36 µg/mL

**Q.** What about the “in vitro activity of the agent alone” value [1] of the same compound?
**A.** potently active

**Q.** What about the “IC70 of gemcitabine alone” value ([2]; LXFA 526L, 0 μg/ml circiliol, median of 2-5 experiments) of the same compound?
**A.** 5.6 µg/mL

**Q.** And the “IC70 of gemcitabine alone” value ([2]; LXFA 526L, 0 μg/ml circiliol, median of 2-5 experiments, listed as Gemcitabine)?
**A.** 5.7 µg/mL

**Q.** And the IC50 ([2]; LXFA 526L, 0 μg/ml circiliol, median of 2-5 experiments, read-out: IC50 of gemcitabine alone)?
**A.** 0.63 µg/mL

**Q.** What about the “IC70 of gemcitabine in combination” value ([2]; LXFA 526L, +3 μg/ml circiliol, median of 2-5 experiments) of the same compound?
**A.** 0.87 µg/mL

**Q.** And the “IC70 of gemcitabine in combination” value ([2]; LXFA 526L, +30 μg/ml circiliol, median of 2-5 experiments)?
**A.** 0.58 µg/mL

**Q.** What about the “fold increase of antitumour activity of gemcitabine (IC70 shift)” value ([2]; LXFA 526L, with 30 μg/ml circiliol) of the same compound?
**A.** 10 fold

**Q.** And the “in vitro activity of the agent alone” value [2]?
**A.** potently active

Reference: US20020169140A1, “Combination therapy for reduction of toxicity of chemotherapeutic agents” (priority 2001, published 2002)
